Where a SMILES comes first, the peptide text is derived from it. [ ]: non-standard residue; d: D form. Hyp = O=C(O)[C@@H]1C[C@@H](O)CN1
Columns and labels:
Pharmacokinetics in mice = assay type: in vivo; settings: mouse; for Cmax / AUC: plasma LC/MS/MS; for half-life: in vivo
Protocol: AFPep (4 mg/kg) was administered by parenteral (i.v., s.c.) as well as oral routes to normal adult mice, dogs, and monkeys. Blood samples were obtained from anesthetized mice via the retroorbital plexus. Blood samples from dogs and monkeys were obtained through an indwelling catheter in the cephalic vein by the veterinarian staff at Albany Medical College. Dogs were awake and alert during sampling; monkeys were under anesthesia, as previously described. For the oral route, gavage was used in mice and monkeys; enteric capsules ([…]) containing AFPep were used and were readily swallowed by dogs. AFPep blood levels were measured using lliquid chromatography and mass spectrometry, as previously described.

[1] = test system: Estrogen-induced mammary tumors; settings: cited from earlier work
Excerpt: (§1) Table 1 The therapeutic and preventive efficacy of AFPep * in rodent models of mammary cancer. | column: Estrogen-Induced Mammary Tumors in ACI Rats ^3 || As models for preventive interventions, two widely used mammary cancer induction models in rats were studied to assess the cancer prevention capabilities of AFPep.

[2] = test system: MNU-induced mammary tumors; settings: cited from earlier work
Excerpt: as §1, with “MNU-Induced” for “Estrogen-Induced”, “Sprague Dawley” for “ACI”, “^2” for “^3”

CC(C)[C@@H]1NC(=O)[C@@H]2C[C@@H](O)CN2C(=O)[C@H]([C@@H](C)O)NC(=O)[C@H](CCCCN)NC(=O)[C@H](CCC(=O)O)NC(=O)[C@H](CC(N)=O)NC(=O)CNC(=O)[C@@H]2C[C@@H](O)CN2C(=O)[C@H](CC(N)=O)NC1=O [AFPep] (cyclo(EKT[Hyp]VN[Hyp]GN))
Cmax (Pharmacokinetics in mice; iv, 4 mg/kg (100 µg/mouse), non-linear regression, first-order PK model): 12000 ng/mL
AUC (Pharmacokinetics in mice; iv, 4 mg/kg): 4200 ng·h/mL
half-life (Pharmacokinetics in mice; iv, 4 mg/kg): 11 min
half-life (Pharmacokinetics in mice; po): 6.3 min
half-life (Pharmacokinetics in mice; sc, 4 mg/kg): 11 min
AUC (Pharmacokinetics in mice; po, p.o. gavage, 4 mg/kg per footnote (100 mg/kg orally)): 80 ng·h/mL
Cmax (Pharmacokinetics in mice; po, p.o. gavage, 4 mg/kg per footnote (escalated to 100 mg/kg orally)): 140 ng/mL
AUC (Pharmacokinetics in mice; sc, 4 mg/kg): 3450 ng·h/mL
Cmax (Pharmacokinetics in mice; sc, 4 mg/kg): 6400 ng/mL
Estrogen-Induced Mammary Tumors in ACI Rats, % of Rats with Tumors ([1]; estradiol Silastic implant, AFPep s.c. once daily, p < 0.05): 48 * %
latency period of cancer appearance ([1]; hormone-induced model): prolonged
MNU-Induced Mammary Tumors in Sprague Dawley Rats, % of Rats with Tumors ([2]; MNU 50 mg/kg, AFPep 4 mg/kg s.c. once daily for 23 days from 10 days after MNU, p < 0.05): 40 * %
latency period of cancer appearance ([2]; chemically induced model): prolonged
